In patent US4560689A, “Heterocyclic-fused pyrazolo-[3,4-d]pyridin-3-ones as benzodiazepine receptor modulators” (Ciba-Geigy Corporation, priority 1984, dated 1985):
Where a name gives a salt, the structure may show the parent alone.

What was measured:
[1] = system: benzodiazepine receptor; assay: in vivo benzodiazepine receptor binding (3H-flunitrazepam); conditions: 30 mg/kg p.o. in the mouse
Procedure: In vivo benzodiazepine receptor binding is determined essentially as described in Eur. J. Pharmacol. 48, 213 (1978) and Nature 275, 551 (1978).
Test compounds in a corn starch vehicle are administered orally or intraperitioneally to mice or rats. Thirty minutes later, 3H-flunitrazepam(2 nmoles/Kg in saline) is injected into the tail vein, and the animals are sacrificed 20 minutes after injection of the flunitrazepam. The brains are then assayed by determining radioactivity in a liquid scintillation counter for binding of the radioligand to the receptors. A decrease in the binding of 3H-flunitrazepam in the drug-treated animals (as compared with the binding observed in animals treated with vehicle alone) is indicative of benzodiazepine receptor binding by the test compound.

[2] = biological target: benzodiazepine receptor; assay: in vitro benzodiazepine receptor binding assay (tritiated diazepam displacement); conditions: inhibition of specific binding of 2 nM tritiated diazepam, membranes from rat fore-brain, 0°-5°, 30 minutes, pH 7.5
Procedure: The benzodiazepine receptor binding properties indicative of the nervous system regulatory activity of said new compounds are determined in the receptor binding assay in vitro, e.g. as described in Nature 266, 732 (1977) or Proc. Nat. Acad. Sci. USA 74, 3805 (1977). Diazepam binds specifically and with high affinity to crude synaptosomal membrane preparations from rat fore-brain. This binding is inhibited by other anxiolytic compounds. When tritiated diazepem is used, the interaction of other drugs with said receptor can be readily assessed thus: membranes from rat fore-brain are incubated at 0°-5° for 30 minutes with 2 nM tritiated diazepam and various concentrations of the test substance in a buffer medium maintained at pH 7.5. Solutions of the various concentrations of test substances are prepared by dilution of a 4.2 mM stock solution in dimethylacetamide-ethanol (1:10) with 50 mM pH7.5. Tris-HCl buffer. The membranes, containing the receptors with various amounts of tritiated diazepam, are filtered onto glass fiber filters, which are then analyzed in a liquid scintillation counter. The concentration of the compounds of this invention, required to inhibit the specific binding of 2 nM of tritiated diazepam by 50%, i.e. the IC50, is determined graphically.

IC50 [2] | Structure (SMILES) | inhibits flunitrazepam binding in vivo [1]
 | O=c1c2c[nH]c3ccncc3c-2nn1-c1ccccc1 [Example 1, 2-phenyl-pyrazolo[4,3-c][1,6]naphthyridin-3(5H)-one] | about 75%
~0.2 nM | O=c1c2c[nH]c3ccncc3c-2nn1-c1ccc(Cl)cc1 [Example 2, 2-p-chlorophenyl-pyrazolo[4,3-c][1,6]naphthyridin-3(5H)-one] | 
~3 nM | O=c1c2c[nH]c3ccncc3c-2nn1-c1cccnc1 [Example 5a, 2-(3-pyridyl)pyrazolo[4,3-c][1,6]naphthyridin-3-(5H)-one hydrochloride] | 
~9 nM | O=c1c2c[nH]c3sccc3c-2nn1-c1ccc(Cl)cc1 [Example 9, 2-(4-chlorophenyl)-thieno[2,3-b]pyrazolo[3,4-d]pyridin-3(5H)-one hydrate] | 
